Patent US20160083391A1, “TRICYCLIC PIPERAZINE DERIVATIVE” (Sunovion Pharmaceuticals Inc., priority 2014, published 2016)

Tested on: PDE1
Assay: In vitro HTRF PDE1 inhibition assay
Assay type: biochemical
Conditions: HTRF cGMP assay, 100 nM cyclic GMP, PDE (1A3, 1B or 1C) with calmodulin, 45 minutes at 37° C.; isoform of the tabulated values not stated
Excerpt: An exemplary procedure for the in vitro Homogenous Time Resolved Fluorescence assay, which can be used to determine the inhibitory action of compounds of the invention toward. PDE1 or its isoforms, follows.
The HTRF PDE1 assay utilized the HTRF (Homogenous Time Resolved Fluorescence) technology, which is based on the competition between unlabeled cyclic nucleotide and cyclic nucleotide labeled with XL665 for the binding to cyclic nucleotide-specific antibody labeled with cryptate. The HTRF signal is thus inversely proportional to the concentration of cyclic nucleotide being measured. Since phosphodiesterases break down cyclic nucleotides the HTRF signal was used to determine PDE activity.
The Cisbio cGMP HTRF assay kit (Cat no: 62GM2PEC) was utilized. Cyclic GMP was diluted to 200 nM in HTRF assay buffer (1 mM CaCl2, 10 mM MgCl2, 10 mM Tris-HCl, 0.1% BSA, pH7.4). 10 μl of compound or DMSO was diluted in 200 nM cyclic GMP solution and added to wells of a 96 well white plate to give 100 nM cyclic GMP in 1% DMSO final concentration. PDE (1A3, 1B or 1C) was diluted to 2× working concentration in HTRF assay buffer with […] Calmodulin, and 10 μl was added to initiate the reaction. The plate was then incubated for 45 minutes at 37° C. d2-Labelled cyclic GMP and anti-cGMP cryptate were diluted in 50 mM phosphate buffer, 0.8M KF, 1% Triton X100, 0.2% BSA, pH7.0. Following incubation 10 μl d2-cGMP, then 10 μl anti cGMP cryptate were added to each well and the plate was incubated for 45 minutes at room temperature. The plate was then read on Perkin Elmer Victor at 2 different FRET readings ex/emm 340 nm/665 nm and 340 nm/615 nm.
Compounds having an IC50 of <1 μM, are denoted as +++. Compounds having an IC50 of 1-10 μM, are denoted as ++. Compounds having an IC50 of >10 μM, are denoted as +.

| IC50 | SMILES |
| --- | --- |
| 1 to 10 µM | CC1CN(Cc2ccc(Cl)cc2)Cc2nc3c(cnn3C3CCCC3)c(=O)n21 (racemic) [Compound I-121, (±)-8-(4-Chlorobenzyl)-1-cyclopentyl-6-methyl-6,7,8,9-tetrahydropyrazino[1,2-a]pyrazolo[3,4-d]pyrimidin-4(1H)-one] |
| 1 to 10 µM | COc1ccc(CN2Cc3nc4c(cnn4C4CCCC4)c(=O)n3C(C)C2)cc1 (racemic) [Compound I-122, (±)-1-Cyclopentyl-8-(4-methoxybenzyl)-6-methyl-6,7,8,9-tetrahydropyrazino[1,2-a]pyrazolo[3,4-d]pyrimidin-4(1H)-one] |
| 1 to 10 µM | COc1ccc(CN2Cc3nc4c(cnn4C(C)C)c(=O)n3CC2C)cc1 (racemic) [Compound I-146, (±)-1-Isopropyl-8-(4-methoxybenzyl)-7-methyl-6,7,8,9-tetrahydropyrazino[1,2-a]pyrazolo[3,4-d]pyrimidin-4(1H)-one] |
| < 1 µM | CC1Cn2c(nc3c(cnn3C(C)C)c2=O)CN1Cc1ccc(Cl)cc1 (racemic) [Compound I-147, (±)-8-(4-Chlorobenzyl)-1-isopropyl-7-methyl-6,7,8,9-tetrahydropyrazino[1,2-a]pyrazolo[3,4-d]pyrimidin-4(1H)-one] |
| < 1 µM | CC1Cn2c(nc3c(cnn3C(C)C)c2=O)CN1Cc1ccc(F)cc1 (racemic) [Compound I-148, (±)-8-(4-Fluorobenzyl)-1-isopropyl-7-methyl-6,7,8,9-tetrahydropyrazino[1,2-d]pyrazolo[3,4-d]pyrimidin-4(1H)-one] |
| < 1 µM | CC1Cn2c(nc3c(cnn3C(C)C)c2=O)CN1Cc1cccc(F)c1 (racemic) [Compound I-149, (±)-8-(3-Fluorobenzyl)-1-isopropyl-7-methyl-6,7,8,9-tetrahydropyrazino[1,2-a]pyrazolo[3,4-d]pyrimidin-4(1H)-one] |
| 1 to 10 µM | CC1Cn2c(nc3c(cnn3C(C)C)c2=O)CN1c1ccc(Cl)cc1 (racemic) [Compound I-150, (±)-8-(4-Chlorophenyl)-1-isopropyl-7-methyl-6,7,8,9-tetrahydropyrazino[1,2-a]pyrazolo[3,4-d]pyrimidin-4(1H)-one] |
| < 1 µM | COc1cccc(N2Cc3nc4c(cnn4C(C)C)c(=O)n3CC2C)c1 (racemic) [Compound I-151, (±)-1-Isopropyl-8-(3-methoxyphenyl)-7-methyl-6,7,8,9-tetrahydropyrazino[1,2-a]pyrazolo[3,4-d]pyrimidin-4(1H)-one] |
| < 1 µM | COc1cc(N2Cc3nc4c(cnn4C(C)C)c(=O)n3CC2C)ccc1F (racemic) [Compound I-152, (±)-8-(4-Fluoro-3-methoxyphenyl)-1-isopropyl-7-methyl-6,7,8,9-tetrahydropyrazino[1,2-a]pyrazolo[3,4-d]pyrimidin-4(1H)-one] |
| 1 to 10 µM | CCC1Cn2c(nc3c(cnn3C(C)C)c2=O)CN1Cc1ccc(OC)cc1 (racemic) [Compound I-153, (±)-7-Ethyl-1-isopropyl-8-(4-methoxybenzyl)-6,7,8,9-tetrahydropyrazino[1,2-a]pyrazolo[3,4-a]pyrimidin-4(1H)-one] |
| 1 to 10 µM | CCC1Cn2c(nc3c(cnn3C(C)C)c2=O)CN1Cc1ccc(Cl)cc1 (racemic) [Compound I-154, (±)-8-(4-Chlorobenzyl)-7-ethyl-1-isopropyl-6,7,8,9-tetrahydropyrazino[1,2-a]pyrazolo[3,4-d]pyrimidin-4(1H)-one] |
| 1 to 10 µM | CCC1Cn2c(nc3c(cnn3C(C)C)c2=O)CN1c1ccc(Cl)cc1 (racemic) [Compound I-155, (±)-8-(4-Chlorophenyl)-7-ethyl-1-isopropyl-6,7,8,9-tetrahydropyrazino[1,2-a]pyrazolo[3,4-d]pyrimidin-4(1H)-one] |
| < 1 µM | CC(C)CC1Cn2c(nc3c(cnn3C(C)C)c2=O)CN1c1ccc(Cl)cc1 (racemic) [Compound I-172, (±)-8-(4-Chlorophenyl)-7-isobutyl-1-isopropyl-6,7,8,9-tetrahydropyrazino[1,2-a]pyrazolo[3,4-d]pyrimidin-4(1H)-one] |
| 1 to 10 µM | O=c1c2cnn(C3CCOC3)c2nc2n1CCN(c1ccccc1)C2 (racemic) [Compound I-216, (±)-8-Phenyl-1-(tetrahydrofuran-3-yl)-6,7,8,9-tetrahydropyrazino[1,2-a]pyrazolo[3,4-d]pyrimidin-4(1H)-one] |
| < 1 µM | O=c1c2cnn(C3CCOC3)c2nc2n1CCN(c1ccc(Cl)cc1)C2 (racemic) [Compound I-217, (±)-8-(4-Chlorophenyl)-1-(tetrahydrofuran-3-yl)-6,7,8,9-tetrahydropyrazino[1,2-a]pyrazolo[3,4-d]pyrimidin-4(1H)-one] |
| 1 to 10 µM | O=c1c2cnn(C3CCOC3)c2nc2n1CCN(Cc1ccccc1)C2 (racemic) [Compound I-218, (±)-8-Benzyl-1-(tetrahydrofuran-3-yl)-6,7,8,9-tetrahydropyrazino[1,2-a]pyrazolo[3,4-d]pyrimidin-4(1H)-one] |

| IC50 | SMILES |
| --- | --- |
| > 10 µM | COc1ccc(CN2CCn3c(nc4c(cnn4C4CCOC4)c3=O)C2)cc1 (racemic) [Compound I-219, (±)-8-(4-methoxybenzyl)-1-(tetrahydrofuran-3-yl)-6,7,8,9-tetrahydropyrazino[1,2-a]pyrazolo[3,4-d]pyrimidin-4(1H)-one] |
| 1 to 10 µM | O=c1c2cnn(C3CCOC3)c2nc2n1CCN(Cc1ccc(Cl)cc1)C2 (racemic) [Compound I-220, (±)-8-(4-Chlorobenzyl)-1-(tetrahydrofuran-3-yl)-6,7,8,9-tetrahydropyrazino[1,2-a]pyrazolo[3,4-d]pyrimidin-4(1H)-one] |
| < 1 µM | O=c1c2cnc(C3CCOC3)n2nc2n1CCN(c1ccccc1)C2 (racemic) [Compound I-229, (±)-7-Phenyl-3-(tetrahydrofuran-3-yl)-8,9-dihydro-6H-imidazo[5,1-f]pyrazino[2,1-c][1,2,4]triazin-11(7H)-one] |
| < 1 µM | O=c1c2cnc(C3CCOC3)n2nc2n1CCN(Cc1ccccc1)C2 (racemic) [Compound I-231, (±)-7-Benzyl-3-(tetrahydrofuran-3-yl)-8,9-dihydro-6H-imidazo[5,1-f]pyrazino[2,1-c][1,2,4]triazin-11(7H)-one] |
| 1 to 10 µM | COc1ccc(CN2CCn3c(nn4c(C5CCOC5)ncc4c3=O)C2)cc1 (racemic) [Compound I-232, (±)-7-(4-Methoxybenzyl)-3-(tetrahydrofuran-3-yl)-8,9-dihydro-6H-imidazo[5,1-f]pyrazino[2,1-c][1,2,4]triazin-11(7H)-one] |
| 1 to 10 µM | O=c1c2cnc(C3CCOC3)n2nc2n1CCN(Cc1ccc(Cl)cc1)C2 (racemic) [Compound I-233, (±)-7-(4-Chlorobenzyl)-3-(tetrahydrofuran-3-yl)-8,9-dihydro-6H-imidazo[5,1-f]pyrazino[2,1-c][1,2,4]triazin-11(7H)-one] |
| > 10 µM | CC(C)n1ncc2c(=O)n3c(nc21)CNCC3 [Compound I-1, 1-Isopropyl-6,7,8,9-tetrahydropyrazino[1,2-a]pyrazolo[3,4-d]pyrimidin-4(1H)-one] |
| > 10 µM | O=c1c2cnn(-c3ccccc3)c2nc2n1CCNC2 [Compound I-2, 1-Phenyl-6,7,8,9-tetrahydropyrazino[1,2-a]pyrazolo[3,4-d]pyrimidin-4(1H)-one] |
| > 10 µM | CC(C)c1n[nH]c2c(=O)n3c(nc12)CNCC3 [Compound I-10, 3-Isopropyl-5,6,7,8-tetrahydropyrazino[1,2-a]pyrazolo[4,3-a]pyrimidin-10(1H)-one] |
| > 10 µM | CC(C)c1nn(C)c2c(=O)n3c(nc12)CNCC3 [Compound I-13, 3-Isopropyl-1-methyl-5,6,7,8-tetrahydropyrazino[1,2-a]pyrazolo[4,3-d]pyrimidin-10(1H)-one] |
| > 10 µM | O=c1c2c(Nc3ccccc3)n[nH]c2nc2n1CCNC2 [Compound I-16, 3-(Phenylamino)-6,7,8,9-tetrahydropyrazino[1,2-a]pyrazolo[3,4-d]pyrimidin-4(1H)-one] |
| > 10 µM | CN1CCn2c(nc3c(cnn3C)c2=O)C1 [Compound I-17, 1,8-Dimethyl-6,7,8,9-tetrahydropyrazino[1,2-a]pyrazolo[3,4-d]pyrimidin-4(1H)-one] |
| > 10 µM | CC(C)n1ncc2c(=O)n3c(nc21)CN(C)CC3 [Compound I-18, 1-Isopropyl-8-methyl-6,7,8,9-tetrahydropyrazino[1,2-a]pyrazolo[3,4-d]pyrimidin-4(1H)-one] |
| > 10 µM | CN1CCn2c(nc3c(cnn3-c3ccccc3)c2=O)C1 [Compound I-19, 8-Methyl-1-phenyl-6,7,8,9-tetrahydropyrazino[1,2-a]pyrazolo[3,4-d]pyrimidin-4(1H)-one] |
| > 10 µM | O=c1c2cn[nH]c2nc2n1CCN(Cc1ccccc1)C2 [Compound I-27, 8-Benzyl-6,7,8,9-tetrahydropyrazino[1,2-a]pyrazolo[3,4-d]pyrimidin-4(1H)-one] |
